Source: patent US20090012177A1, “Treatment of psychiatric disorders using entacapone, tolcapone and other COMT inhibitor or MB-COMT inhibitor drugs” (priority 2006, published 2009)

Assays:
[1] = cited from earlier work
[2] = test system: rats; conditions: cited from earlier work
[3] = test system: primates; conditions: cited from earlier work
[4] = test system: prefrontal cortex functions; conditions: subjects with the Val/Val genotype; cited from earlier work
[5] = test system: patients with drug dependency; assay: Illustrative case reports: six cases of drug dependency; format: in vivo, human
[6] = administered in conjunction; cited from earlier work
[7] = test system: patients with SCZ, BD, Major depression and drug dependency; assay: Clinical studies of entacapone in more than 100 patients, evaluated with the CGI scale; format: in vivo, human
Procedure: This new therapeutic application was determined in patients (Men/women) in single-drug and combination drug therapy. 100 patients were treated at a dose range of 3-10-mg/kg day (50 mg/day-800 mg/day) orally for period of 12 weeks and continued for as long as patients consented averaged 12 months or more.
The drug efficacy was evaluated using the CGI (Clinical Global Impression) scale. This is a simple tool that is clinically understandable, has proven to be a robust measure of efficacy in drug treatment trial and is highly sensitive to change of clinical status.

[8] = in vivo; cited from earlier work
[9] = test system: patient with BD; assay: Illustrative case report: a case of BD; format: in vivo, human; conditions: 400 mg/day, follow up
Text: Married person, a hedge fund investment manager with history of BD who has had temporary partial response to antidepressants but mainly resulting in exacerbation symptoms of anxiety, relapse to a depression or cycling to mania. They were intolerant of atypical antipsychotics with potential antidepressant effect (Ziprasidone, Aripiprazole and Quetiapine) either as mono therapy or combined with Lithium or Lamotrigine. […] They reported oil Lithium their “up and down swings were better” but complained their depression was not resolved and they were not happy. They also complained of lack of motivation, trouble with concentration, getting easily overwhelmed with their job, inability to feel joy, overall lack of interest in everything, not knowing what to do with themself, gave up on all hobbies, feeling being all consumed, excessive day time napping, feeling bored especially when their time would be unstructured on week end, loss of their spontaneity and resorting to procrastination, They went to an exotic vacation in Caribbean with their spouse with the hope to bounce back. But as they reported they were not able to enjoy their vacation, complained feeling “being stuck at the low bottom and strongly believed they would never come out of it”. They had started to do Marijuana with the hope to improve their mood. They were preoccupied with getting a gun and shoots themself. […]

Cc1ccc(C(=O)c2cc(O)c(O)c([N+](=O)[O-])c2)cc1 [Tolcapone]
tolerability ([1]; human, in vivo): well tolerated drug with no major side effects
hepatic failure ([1]; reported in Europe in the early years of use): three cases of hepatic failure
extradimensional set shifting performance mediated by prefrontal cortex catecholamines [2]: significantly improved
extradimensional set shifting performance mediated by prefrontal cortex catecholamines [3]: significantly improved

CC(N)Cc1ccccc1 (stereo not shown) [amphetamine]
efficiency of prefrontal cortex functions in working memory tasks [4]: enhanced

CCN(CC)C(=O)/C(C#N)=C/c1cc(O)c(O)c([N+](=O)[O-])c1 [entacapone]
common side effects ([1]; human, in vivo): gastrointestinal problems, including diarrhea, nausea and abdominal pains
safety profile relative to tolcapone ([1]; human, in vivo): much better safety profile
most frequent undesirable effects ([1]; related to increased effects of L-DOPA, beginning of treatment): involuntary movements (dyskinesias)
duration of abstinence, Case #2 ([5]; cocaine and alcohol dependant, relapsed when entacapone stopped): 10 months
duration of sobriety, Case #3 ([5]; increased to 400 then 600 mg/day): 14 months
bioavailability of dopaminergic agents such as L-DOPA [6]: increases the bioavailability
serious events (physical, neurological or psychiatric adverse effects) ([7]; during the study, 50-800 mg per day): no indication of serious events
cases with improved negative and depressive symptoms (CGI scale) ([7]; entacapone (Comtan) 50-800 mg per day, more than 100 patients): more than 60%
effect of discontinuation of treatment on clinical condition ([7]; in comparison to the pre-treatment status): did not cause any worsening of the clinical condition
blood brain barrier penetration relative to tolcapone [8]: half that of about tolcapone
duration of maintained effect in BD [9]: 12 months
